The results in this text go back to patent US12440496B2, “Natriuretic peptide receptor a agonists useful for the treatment of cardiometabolic diseases, kidney disease and diabetes” (Merck Sharp & Dohme LLC, priority 2019, dated 2025).

Molecules are shown by their SMILES. Structures can show the parent of a compound that is named as a salt.

This test has as its target T1, hNPRA (Homo sapiens, UniProt P16066).
T1 construct: expressed in transfected cells
T1 sequence (P16066 33-1061): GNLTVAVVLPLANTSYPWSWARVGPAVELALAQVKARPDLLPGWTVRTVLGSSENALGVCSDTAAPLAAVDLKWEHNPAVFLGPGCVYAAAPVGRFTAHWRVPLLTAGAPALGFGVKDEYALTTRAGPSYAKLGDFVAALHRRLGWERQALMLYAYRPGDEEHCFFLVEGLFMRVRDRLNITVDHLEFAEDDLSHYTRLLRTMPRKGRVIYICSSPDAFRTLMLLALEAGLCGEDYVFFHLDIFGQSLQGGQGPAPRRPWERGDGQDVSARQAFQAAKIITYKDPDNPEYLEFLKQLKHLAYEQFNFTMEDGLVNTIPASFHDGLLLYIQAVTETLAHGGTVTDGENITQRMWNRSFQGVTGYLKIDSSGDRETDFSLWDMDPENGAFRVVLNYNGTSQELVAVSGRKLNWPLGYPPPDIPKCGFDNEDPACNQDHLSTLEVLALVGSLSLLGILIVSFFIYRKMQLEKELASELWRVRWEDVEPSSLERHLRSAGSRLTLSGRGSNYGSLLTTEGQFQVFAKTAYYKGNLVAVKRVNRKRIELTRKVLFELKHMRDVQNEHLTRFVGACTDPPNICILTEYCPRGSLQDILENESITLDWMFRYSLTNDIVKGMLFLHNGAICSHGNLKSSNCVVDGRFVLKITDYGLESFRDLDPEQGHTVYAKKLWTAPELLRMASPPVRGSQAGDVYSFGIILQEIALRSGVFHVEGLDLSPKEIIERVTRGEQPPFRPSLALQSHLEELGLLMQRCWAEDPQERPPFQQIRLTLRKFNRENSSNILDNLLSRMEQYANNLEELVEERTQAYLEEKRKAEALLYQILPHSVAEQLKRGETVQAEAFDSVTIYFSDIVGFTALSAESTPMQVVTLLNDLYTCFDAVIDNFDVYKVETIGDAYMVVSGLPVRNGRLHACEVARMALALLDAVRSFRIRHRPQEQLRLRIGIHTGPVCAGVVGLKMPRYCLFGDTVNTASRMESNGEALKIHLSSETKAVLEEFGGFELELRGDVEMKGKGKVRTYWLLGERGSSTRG
As to the kind of experiment: NPRA Functional Cell Assay (cGMP HTRF, NPRA HEK JumpIn stable cells). Type of test: cell-based. Conditions: cGMP production, 1 hour at 37° C., 10-point dose response. The method in brief: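 cGMP HTRF read-out after 1 hour compound treatment at 37° C. of human NPRA-expressing HEK JumpIn cells, 1500 cells/well, in buffer with phosphodiesterase inhibitors IBMX and RO20 (100 uM each). Signal converted to [cGMP] by calibration curve; EC50s fitted by 4-parameter logistic; 50 nM h-ANP as positive response.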
Regarding `CC(C)(C)[C@H]1CCc2nc3sc(C(=O)N[C@H](CCN4CCC(O)CC4)c4ccc(Oc5ccc(O)cc5)nc4)nc3cc2C1` (racemic) [Example 194, ammonium; 4-[[5-[rac-(1R)-3-(4-hydroxy-1-piperidyl)-1-[[rac-(7S)-7-tert-butyl-5,6,7,8-tetrahydrothiazolo[5,4-b]quinoline-2-carbonyl]amino]propyl]-2-pyridyl]oxy]phenolate], the EC50 (as a rule, the concentration giving half of the maximal effect) amounted to 1500 nM.

For the molecule `CC(C)(C)[C@H]1CCc2nc3sc(C(=O)N[C@H](CCN4CCC(O)CC4)c4ccc(-c5ccc(=O)[nH]c5)nc4)nc3cc2C1` (racemic) [Example 195, rac-(7S)-7-tert-butyl-N-[rac-(1R)-3-(4-hydroxy-1-piperidyl)-1-[6-(6-oxo-1H-pyridin-3-yl)-3-pyridyl]propyl]-5,6,7,8-tetrahydrothiazolo[5,4-b]quinoline-2-carboxamide], the EC50 amounted to 126 nM.

As to `CC(C)(C)[C@H]1CCc2nc3sc(C(=O)N[C@H](CCN4CCC(O)CC4)c4ccc(-c5cn[nH]c5)nc4)nc3cc2C1` (racemic) [Example 196, rac-(7S)-7-tert-butyl-N-[rac-(1R)-3-(4-hydroxy-1-piperidyl)-1-[6-(1H-pyrazol-4-yl)-3-pyridyl]propyl]-5,6,7,8-tetrahydrothiazolo[5,4-b]quinoline-2-carboxamide], the concentration giving a half-maximal response (EC50) is 303 nM.

Turning to `CC(C)(C)[C@H]1CCc2nc3sc(C(=O)N[C@H](CCN4CCC(O)CC4)c4ccc(-c5csc(C(=O)O)c5)nc4)nc3cc2C1` (racemic) [Example 197, 4-[5-[rac-(1R)-3-(4-hydroxypiperidin-1-ium-1-yl)-1-[[rac-(7S)-7-tert-butyl-5,6,7,8-tetrahydrothiazolo[5,4-b]quinoline-2-carbonyl]amino]propyl]-2-pyridyl]thiophene-2-carboxylic acid; 2,2,2-trifluoroacetate], the concentration giving a half-maximal response (EC50) worked out at 560 nM.

With `CC(C)(C)[C@H]1CCc2nc3sc(C(=O)N[C@H](CCN4CCC(N)CC4)c4ccc(-c5cnc(O)c(F)c5)cc4)nc3cc2C1` (racemic) [Example 198, [1-[rac-(3R)-3-[4-(5-fluoro-6-hydroxy-3-pyridyl)phenyl]-3-[[rac-(7S)-7-tert-butyl-5,6,7,8-tetrahydrothiazolo[5,4-b]quinoline-2-carbonyl]amino]propyl]-4-piperidyl]ammonium; formate], the EC50 stood at 220 nM.

On to `CC(C)(C)[C@H]1CCc2nc3sc(C(=O)N[C@H](CCN4CCC(O)(CN)CC4)c4ccc(-c5cnc(O)c(F)c5)cc4)nc3cc2C1` (racemic) [Example 199, [4-hydroxy-1-[rac-(3R)-3-[4-(5-fluoro-6-hydroxy-3-pyridyl)phenyl]-3-[[rac-(7S)-7-tert-butyl-5,6,7,8-tetrahydrothiazolo[5,4-b]quinoline-2-carbonyl]amino]propyl]-4-piperidyl]methylammonium; formate], for which the EC50 came to 222 nM.

`CN(C)CC1(O)CCN(CC[C@@H](NC(=O)c2nc3cc4c(nc3s2)CC[C@H](C(C)(C)C)C4)c2ccc(-c3cnc(O)c(F)c3)cc2)CC1` (racemic) [Example 200, rac-(7S)-7-tert-butyl-N-[rac-(1R)-3-[4-[(dimethylamino)methyl]-4-hydroxy-piperidin-1-ium-1-yl]-1-[4-(5-fluoro-6-hydroxy-3-pyridyl)phenyl]propyl]-5,6,7,8-tetrahydrothiazolo[5,4-b]quinoline-2-carboxamide; formate] displayed a concentration giving a half-maximal response (EC50) of 243 nM.

Molecule `CC(C)(C)[C@H]1CCc2nc3sc(C(=O)N[C@H](CCN4CC[C@@H](C(=O)O)[C@@H](F)C4)c4ccc(-c5cnc(O)c(F)c5)cc4)nc3cc2C1` (racemic) [Example 201, rac-(3R,4S)-3-fluoro-1-[rac-(3R)-3-[4-(5-fluoro-6-hydroxy-3-pyridyl)phenyl]-3-[[rac-(7S)-7-tert-butyl-5,6,7,8-tetrahydrothiazolo[5,4-b]quinoline-2-carbonyl]amino]propyl]piperidin-1-ium-4-carboxylic acid; formate] had an EC50 of 447 nM.

`CCN(CC)CC[C@@H](NC(=O)c1nc2cc3c(nc2s1)CC[C@H](C(C)(C)C)C3)c1ccc(-c2cnc(O)c(F)c2)cc1` (racemic) [Example 202, diethyl-[rac-(3R)-3-[4-(5-fluoro-6-hydroxy-3-pyridyl)phenyl]-3-[[rac-(7S)-7-tert-butyl-5,6,7,8-tetrahydrothiazolo[5,4-b]quinoline-2-carbonyl]amino]propyl]ammonium; formate] displayed an EC50 of 514 nM.

On to `CC(C)(C)[C@H]1CCc2nc3sc(C(=O)N[C@H](CCN4CC[C@H](C(=O)O)[C@@H](F)C4)c4ccc(-c5cnc(O)c(F)c5)cc4)nc3cc2C1` (racemic) [Example 203, rac-(3R,4R)-3-fluoro-1-[rac-(3R)-3-[4-(5-fluoro-6-hydroxy-3-pyridyl)phenyl]-3-[[rac-(7S)-7-tert-butyl-5,6,7,8-tetrahydrothiazolo[5,4-b]quinoline-2-carbonyl]amino]propyl]piperidin-1-ium-4-carboxylic acid; formate], for which a half-maximal effect (EC50) was put at 1190 nM.

In turn, `CC(C)(C)[C@H]1CCc2nc3sc(C(=O)N[C@H](CCN4CCC5OCCCC5C4)c4ccc(-c5cnc(O)c(F)c5)cc4)nc3cc2C1` (mixture of isomers) [Example 204, rac-(7S)-7-tert-butyl-N-[rac-(1R)-3-(3,4,4a,5,6,7,8,8a-octahydro-2H-pyrano[3,2-c]pyridin-6-ium-6-yl)-1-[4-(5-fluoro-6-hydroxy-3-pyridyl)phenyl]propyl]-5,6,7,8-tetrahydrothiazolo[5,4-b]quinoline-2-carboxamide; formate] gave an EC50 of 1290 nM.

For `CN(C)S(=O)(=O)Nc1ccc([C@@H](CCN2CCCOCC2)NC(=O)c2nc3cc4c(nc3s2)CC[C@H](C(C)(C)C)C4)cn1` (racemic) [Example 205, rac-(7S)-7-tert-butyl-N-[rac-(1R)-1-[6-(dimethylsulfamoylamino)-3-pyridyl]-3-(1,4-oxazepan-4-ium-4-yl)propyl]-5,6,7,8-tetrahydrothiazolo[5,4-b]quinoline-2-carboxamide; 2,2,2-trifluoroacetate], a half-maximal response (EC50) required 563 nM.

Molecule `CN(CCO)CC[C@@H](NC(=O)c1nc2cc3c(nc2s1)CC[C@H](C(C)(C)C)C3)c1ccc(NS(=O)(=O)N(C)C)nc1` (racemic) [Example 206, 2-hydroxyethyl-methyl-[rac-(3R)-3-[6-(dimethylsulfamoylamino)-3-pyridyl]-3-[[rac-(7S)-7-tert-butyl-5,6,7,8-tetrahydrothiazolo[5,4-b]quinoline-2-carbonyl]amino]propyl]ammonium; 2,2,2-trifluoroacetate] came in with a concentration for a half-maximal effect (EC50) of 674 nM.

For the molecule `O=C(O)C(F)(F)F.[2H]C([2H])([2H])N(CC[C@@H](NC(=O)c1nc2cc3c(nc2s1)CC[C@H](C(C)(C)C)C3)c1ccc(NS(=O)(=O)N(C)C)nc1)C([2H])([2H])[2H]` (racemic) [Example 207, [rac-(3R)-3-[6-(dimethylsulfamoylamino)-3-pyridyl]-3-[[rac-(7S)-7-tert-butyl-5,6,7,8-tetrahydrothiazolo[5,4-b]quinoline-2-carbonyl]amino]propyl]-bis(trideuteriomethyl)ammonium; 2,2,2-trifluoroacetate], a half-maximal response (EC50) required 679 nM.
